{
  "source": "patent US20090181898A1",
  "about": "“ABUSE-RESISTANT A[…]” (SHIRE LLC, priority 2002, published 2009)",
  "key": {"rats [1]": {"system": "rats", "assay": "Horizontal locomotor activity after oral administration", "assay_type": "in vivo, Sprague-Dawley rats", "conditions": "for Peak of activity (Counts per 0.2 h) / Time of Last Count Above 200 per 0.2 h / Total Activity Counts / Total Activity Counts Above Baseline: rats, oral gavage 6 mg/kg"}, "rats [2]": {"system": "rats", "assay": "Locomotor activity after intranasal administration with and without CMC", "assay_type": "in vivo, Sprague-Dawley rats", "description": "The CMC drug mixtures were suspended thoroughly before each dose was delivered."}, "rats [3]": {"system": "rats", "assay": "Locomotor activity after intravenous administration", "assay_type": "in vivo, Sprague-Dawley rats", "conditions": "rat, 1.0 mg/kg"}, "[4]": {"assay": "Stability under acidic conditions", "conditions": "for d-amphetamine content released: reflux; for d-amphetamine released: acids; for Hydrolysis: reflux in concentrated HCl"}, "[5]": {"assay": "Intranasal bioavailability (LC/MS/MS)", "conditions": "rat, in vivo, other: intranasal, 3 mg/kg"}, "[6]": {"assay": "Oral bioavailability at escalating doses (LC/MS/MS)", "conditions": "rat; for AUC(0-inf): in vivo, po; for F (fraction of intact L-lysine-d-amphetamine absorbed): oral"}, "stimulant abusers": {"system": "stimulant abusers", "assay": "Abuse liability of intravenous L-lysine-d-amphetamine in stimulant abusers", "conditions": "IV"}, "anesthetized dog": {"system": "anesthetized dog", "assay": "Cardiovascular effects following intravenous injection in the anesthetized dog"}, "[7]": {"conditions": "rats, intranasal 1.0 mg/kg, 1 h"}, "[8]": {"conditions": "L-lysine-d-amphetamine 50 mg, d-amphetamine 20 mg"}},
  "data": [
    {"smiles": "CC(Cc1ccccc1)NC(=O)C(N)CCCCN", "note": "[L-lysine-d-amphetamine, 2,6-diaminohexanoic acid-(1-methyl-2-phenylethyl)-amide]", "values": [
      {"measurement": "Increase of total HLA activity counts over those induced by d-amphetamine", "setting": "rats [1]; rat, oral, 6 mg/kg, three experiments (5, 8, 12 h)", "value": "11-41%"},
      {"measurement": "Peak of activity (Counts per 0.2 h)", "setting": "rats [1]; 5 h experiment", "value": 318, "unit": "Counts per 0.2 h"},
      {"measurement": "Time of Last Count Above 200 per 0.2 h", "setting": "rats [1]; 5 h experiment", "value": 5, "unit": "h"},
      {"measurement": "Total Activity Counts", "setting": "rats [1]; 5 h experiment", "value": 6417},
      {"measurement": "Total Activity Counts Above Baseline", "setting": "rats [1]; 5 h experiment", "value": 5902},
      {"measurement": "Peak of activity (Counts per 0.2 h)", "setting": "rats [1]; 12 h experiment", "value": 256, "unit": "Counts per 0.2 h"},
      {"measurement": "Time of Last Count Above 200 per 0.2 h", "setting": "rats [1]; 12 h experiment", "value": 8.6, "unit": "h"},
      {"measurement": "Total Activity Counts", "setting": "rats [1]; 12 h experiment", "value": 8423},
      {"measurement": "Total Activity Counts Above Baseline", "setting": "rats [1]; 12 h experiment", "value": 7487},
      {"measurement": "Increase in activity over baseline compared to activity for d-amphetamine dosed animals", "setting": "rats [2]; rat, intranasal, 1.0 mg/kg", "value": 34, "unit": "%"},
      {"measurement": "Percent Amp (activity above baseline relative to Amp)", "setting": "rats [2]; [7]", "value": 35, "unit": "%"},
      {"measurement": "Total Activity Counts (1 h)", "setting": "rats [2]; [7]", "value": 408},
      {"measurement": "Total Activity Counts Above Baseline", "setting": "rats [2]; [7]", "value": 237},
      {"measurement": "Total Activity Counts (3 h)", "setting": "rats [3]", "value": 767},
      {"measurement": "Activity above baseline, Percent Amp", "setting": "rats [3]; 3 h", "value": 34, "unit": "%"},
      {"measurement": "Total Activity Counts Above Baseline", "setting": "rats [3]; 3 h", "value": 463},
      {"measurement": "d-amphetamine content released", "setting": "[4]; 50% sulfuric acid", "value": 59, "unit": "%"},
      {"measurement": "d-amphetamine released", "setting": "[4]; 90° C.", "value": "only a limited amount"},
      {"measurement": "d-amphetamine released", "setting": "[4]; ambient temperature", "value": "only a limited amount"},
      {"measurement": "d-amphetamine content released", "setting": "[4]; concentrated hydrochloric acid", "value": 85, "unit": "%"},
      {"measurement": "Stability", "setting": "[4]; reflux in concentrated H2SO4, 2 hours", "value": "complete decomposition"},
      {"measurement": "Hydrolysis", "setting": "[4]; 5 hours", "value": 28, "unit": "%"},
      {"measurement": "Hydrolysis", "setting": "[4]; 22 hours", "value": 76, "unit": "%"},
      {"measurement": "concentration at 0 h", "setting": "[5]", "value": 0, "unit": "ng/mL"},
      {"measurement": "AUC(0-inf)", "setting": "[6]; 3 mg/kg", "value": 331, "unit": "ng·h/mL"},
      {"measurement": "AUC(0-inf)", "setting": "[6]; 6 mg/kg", "value": 1180, "unit": "ng·h/mL"},
      {"measurement": "AUC(0-inf)", "setting": "[6]; 12 mg/kg", "value": 5170, "unit": "ng·h/mL"},
      {"measurement": "AUC(0-inf)", "setting": "[6]; 60 mg/kg", "value": 8460, "unit": "ng·h/mL"},
      {"measurement": "F (fraction of intact L-lysine-d-amphetamine absorbed)", "setting": "[6]; 3 mg/kg", "value": 7.2, "unit": "%"},
      {"measurement": "F (fraction of intact L-lysine-d-amphetamine absorbed)", "setting": "[6]; 6 mg/kg", "value": 12.8, "unit": "%"},
      {"measurement": "F (fraction of intact L-lysine-d-amphetamine absorbed)", "setting": "[6]; 12 mg/kg", "value": 24.6, "unit": "%"},
      {"measurement": "F (fraction of intact L-lysine-d-amphetamine absorbed)", "setting": "[6]; 60 mg/kg", "value": 9.3, "unit": "%"},
      {"measurement": "Euphoria or amphetamine-like subjective effects", "setting": "stimulant abusers; 50 mg", "value": "did not produce euphoria or amphetamine-like subjective effects"},
      {"measurement": "Mean maximum response on Subject Liking VAS vs placebo", "setting": "stimulant abusers; [8]", "value": "not greater than placebo"},
      {"measurement": "Subjects (of 9) who would take the treatment again", "setting": "stimulant abusers; [8]", "value": "one"},
      {"measurement": "Increase in mean BP", "setting": "anesthetized dog; dog, IV, approximately 30 minutes after injection", "value": "20-50%"},
      {"measurement": "DAP % Change", "setting": "anesthetized dog; iv 0.5 mg/kg, Time 0", "value": 0, "unit": "%"},
      {"measurement": "DAP diastolic arterial pressure", "setting": "anesthetized dog; iv 0.5 mg/kg, Time 0", "value": 51, "unit": "mmHg"},
      {"measurement": "LVP % Change", "setting": "anesthetized dog; iv 0.5 mg/kg, Time 0", "value": 0, "unit": "%"},
      {"measurement": "LVP left ventricular pressure", "setting": "anesthetized dog; iv 0.5 mg/kg, Time 0", "value": 86, "unit": "mmHg"},
      {"measurement": "MAP % Change", "setting": "anesthetized dog; iv 0.5 mg/kg, Time 0", "value": 0, "unit": "%"},
      {"measurement": "MAP mean arterial pressure", "setting": "anesthetized dog; iv 0.5 mg/kg, Time 0", "value": 64, "unit": "mmHg"},
      {"measurement": "SAP % Change", "setting": "anesthetized dog; iv 0.5 mg/kg, Time 0", "value": 0, "unit": "%"},
      {"measurement": "SAP systolic arterial pressure", "setting": "anesthetized dog; iv 0.5 mg/kg, Time 0", "value": 84, "unit": "mmHg"},
      {"measurement": "DAP % Change", "setting": "anesthetized dog; iv 0.5 mg/kg, Time 5", "value": 3, "unit": "%"},
      {"measurement": "DAP diastolic arterial pressure", "setting": "anesthetized dog; iv 0.5 mg/kg, Time 5", "value": 52, "unit": "mmHg"},
      {"measurement": "LVP % Change", "setting": "anesthetized dog; iv 0.5 mg/kg, Time 5", "value": 2, "unit": "%"},
      {"measurement": "LVP left ventricular pressure", "setting": "anesthetized dog; iv 0.5 mg/kg, Time 5", "value": 87, "unit": "mmHg"},
      {"measurement": "MAP % Change", "setting": "anesthetized dog; iv 0.5 mg/kg, Time 5", "value": 3, "unit": "%"},
      {"measurement": "MAP mean arterial pressure", "setting": "anesthetized dog; iv 0.5 mg/kg, Time 5", "value": 66, "unit": "mmHg"},
      {"measurement": "SAP % Change", "setting": "anesthetized dog; iv 0.5 mg/kg, Time 5", "value": 4, "unit": "%"},
      {"measurement": "SAP systolic arterial pressure", "setting": "anesthetized dog; iv 0.5 mg/kg, Time 5", "value": 87, "unit": "mmHg"},
      {"measurement": "DAP % Change", "setting": "anesthetized dog; iv 0.5 mg/kg, Time 15", "value": 1, "unit": "%"},
      {"measurement": "DAP diastolic arterial pressure", "setting": "anesthetized dog; iv 0.5 mg/kg, Time 15", "value": 51, "unit": "mmHg"},
      {"measurement": "LVP % Change", "setting": "anesthetized dog; iv 0.5 mg/kg, Time 15", "value": 11, "unit": "%"},
      {"measurement": "LVP left ventricular pressure", "setting": "anesthetized dog; iv 0.5 mg/kg, Time 15", "value": 95, "unit": "mmHg"},
      {"measurement": "MAP % Change", "setting": "anesthetized dog; iv 0.5 mg/kg, Time 15", "value": 5, "unit": "%"},
      {"measurement": "MAP mean arterial pressure", "setting": "anesthetized dog; iv 0.5 mg/kg, Time 15", "value": 67, "unit": "mmHg"},
      {"measurement": "SAP % Change", "setting": "anesthetized dog; iv 0.5 mg/kg, Time 15", "value": 11, "unit": "%"},
      {"measurement": "SAP systolic arterial pressure", "setting": "anesthetized dog; iv 0.5 mg/kg, Time 15", "value": 93, "unit": "mmHg"},
      {"measurement": "DAP % Change", "setting": "anesthetized dog; iv 0.5 mg/kg, Time 25", "value": 8, "unit": "%"},
      {"measurement": "DAP diastolic arterial pressure", "setting": "anesthetized dog; iv 0.5 mg/kg, Time 25", "value": 55, "unit": "mmHg"},
      {"measurement": "LVP % Change", "setting": "anesthetized dog; iv 0.5 mg/kg, Time 25", "value": 22, "unit": "%"},
      {"measurement": "LVP left ventricular pressure", "setting": "anesthetized dog; iv 0.5 mg/kg, Time 25", "value": 105, "unit": "mmHg"},
      {"measurement": "MAP % Change", "setting": "anesthetized dog; iv 0.5 mg/kg, Time 25", "value": 15, "unit": "%"},
      {"measurement": "MAP mean arterial pressure", "setting": "anesthetized dog; iv 0.5 mg/kg, Time 25", "value": 73, "unit": "mmHg"},
      {"measurement": "SAP % Change", "setting": "anesthetized dog; iv 0.5 mg/kg, Time 25", "value": 25, "unit": "%"},
      {"measurement": "SAP systolic arterial pressure", "setting": "anesthetized dog; iv 0.5 mg/kg, Time 25", "value": 104, "unit": "mmHg"},
      {"measurement": "DAP % Change", "setting": "anesthetized dog; iv 0.5 mg/kg, Time 30", "value": 14, "unit": "%"},
      {"measurement": "DAP diastolic arterial pressure", "setting": "anesthetized dog; iv 0.5 mg/kg, Time 30", "value": 58, "unit": "mmHg"},
      {"measurement": "LVP % Change", "setting": "anesthetized dog; iv 0.5 mg/kg, Time 30", "value": 26, "unit": "%"},
      {"measurement": "LVP left ventricular pressure", "setting": "anesthetized dog; iv 0.5 mg/kg, Time 30", "value": 108, "unit": "mmHg"},
      {"measurement": "MAP % Change", "setting": "anesthetized dog; iv 0.5 mg/kg, Time 30", "value": 21, "unit": "%"},
      {"measurement": "MAP mean arterial pressure", "setting": "anesthetized dog; iv 0.5 mg/kg, Time 30", "value": 77, "unit": "mmHg"},
      {"measurement": "SAP % Change", "setting": "anesthetized dog; iv 0.5 mg/kg, Time 30", "value": 28, "unit": "%"},
      {"measurement": "SAP systolic arterial pressure", "setting": "anesthetized dog; iv 0.5 mg/kg, Time 30", "value": 107, "unit": "mmHg"},
      {"measurement": "DAP % Change", "setting": "anesthetized dog; iv 1.0 mg/kg, Time 0", "value": 0, "unit": "%"},
      {"measurement": "DAP diastolic arterial pressure", "setting": "anesthetized dog; iv 1.0 mg/kg, Time 0", "value": 55, "unit": "mmHg"}
    ]}
  ]
}
